Tested on: BRB breakdown in mice exposed to vascular endothelial growth factor (VEGF)
Test: BRB breakdown quantitated with [3H]-mannitol tracer in mice given intravitreal VEGF
Format: in vivo, C57B/J6 mice
From the text: Intraperitoneally administered radiolabeled tracer can be used to quantitate BRB breakdown in mice exposed to vascular endothelial growth factor (VEGF). This technique is particularly advantageous with neonatal mice because of the technical difficulty involved with intravascular injections. Also, the comparison of retinas from injected and control eyes to tissues without a blood-tissue barrier corrects for variations in the amount of isotope injected or absorbed into the circulation.
Ten six- to seven-week-old C57B/J6 mice (Jackson Labs, Bar Harbor, Me.) are weighed to determine the proper dosage of anesthesia and tracer required. Mice are anesthetized with a solution containing 25 mg/kg ketamine (Ketaset; Fort Dodge Animal Health, Fort Dodge, Iowa) and 4 mg/kg rompun (Tranquived; Vedco, St. Joseph, Mo.) diluted 1:10 in saline prior to injection. Five mice are subjected to gavage with 50 mg/kg N-benzoyl staurosporine for three days prior to intravitreal administration of VEGF; the other five mice are subjected to gavage with vehicle.
Tropicamide (1%) is used to dilate the pupils of anesthetized mice. Under a dissecting microscope, a Harvard injector (PLI 100) is used with a glass pipet pulled to a diameter of 13-20 μm to inject 1 μl of saline containing VEGF (R&D Systems, Minneapolis, Minn.). The eyes are entered posterior to the limbus, directing the pipet toward the optic nerve. The solution is then deposited just in front of the retina without inflicting any damage to the lens. […]
One ml NCSII (Amersham, Chicago, Ill.) solubilizing solution is added to each vial and the vials are incubated overnight in a 50° C. water bath. […] The specimens are counted on a Wallac 1409 Liquid Scintillation Counter (Gaithersburg, :Md.).
The counts per mg tissue are determined for treated (with N-benzoyl staurosporine) and untreated retina, lung, and kidney. Ratios of these values for treated or untreated retina/lung or kidney and for lung/kidney are calculated. […]

SMILES: CO[C@@H]1[C@H](N(C)C(=O)c2ccccc2)C[C@H]2O[C@]1(C)n1c3ccccc3c3c4c(c5c6ccccc6n2c5c31)C(=O)NC4 [N-benzoyl staurosporine]
- radioactivity in the retinas (leakage of radioactive tracer out of the retinal blood vessels) (50 mg/kg N-benzoyl staurosporine by gavage versus vehicle gavage, before intravitreal VEGF): significantly less radioactivity
- retina/kidney ratio (50 mg/kg by gavage for three days before intravitreal VEGF 10^-6 M, [3H]-mannitol at 6 hours, VEGF/vehicle 0.6806±0.1060, Student-t value 0.0201): 0.3881±0.0436
- retina/lung ratio (cpm per mg of retina/cpm per mg of lung) (50 mg/kg by gavage for three days before intravitreal VEGF 10^-6 M, [3H]-mannitol at 6 hours, VEGF/vehicle 0.8785±0.0946, Student-t value 0.0467): 0.6326±0.0656

— patent publication US20030119812A1, “Method for decreasing capillary permeability in the retina” (priority 2001, published 2003)
